Test results published in PubChem BioAssay AID2060356 (Molecular Pharmacology Branch, DTP, NCI, 2025).
Values joined by “and” are separate entries in the source; they are usually repeats but may differ in a detail not shown here. Equal entries are not always repeated.

System: PDC tumor spheroids with HUVEC/MSC, viability
Assay: Anticancer human tumor 439559-082-T-J2-PDC patient-derived colon adenocarcinoma cell line growth inhibition [TAK]
Conditions: for viability, T/C: stronger effect = lower value
From the text: Combinatorial screen of targeted agents with TAK-243 and ipatasertib in multi-cell type tumor spheroids
A high-throughput screen of multi-cell type tumor spheroids was designed to identify active combinations of targeted small molecules and TAK-243 or ipatasertib. Complex spheroids include a stromal component modeled by human endothelial cells (HUVEC) and fibroblasts modeled by human mesenchymal stem cells (MSCs). The concentration ranges selected for each drug and investigational agent were based upon clinically achievable concentrations if the clinical Cmax of the agent was known.
Compounds. The drugs and investigational agents: TAK-243 (785004), ipatasertib (767898), everolimus (733504), selumetinib (741078), bortezomib (756655), trametinib (758246), ixazomib (758254), vemurafenib (761431), dabrafenib (764134), sapanisertib (764658), alpelisib (765974), and copanlisib (816437), were obtained from the National Cancer Institute (NCI) Developmental Therapeutics Program Chemical Repository. The FDA-approved anticancer drug set is available from the NCI Developmental Therapeutics Program. […] The stock solutions were prepared in dimethyl sulfoxide (DMSO, Sigma-Aldrich, St. Louis, MO, cat. D2650) at 800-fold the tested concentration and stored at -70 degrees C prior to their use. All drugs and investigational agents were tested over a range starting from a high concentration at or near the clinical Cmax and decreasing in half-log increments. If the clinical Cmax for an agent had not been determined, the highest concentration tested was 10 microM.
NCI60 Cell Culture. NCI60 cell lines were obtained from the NCI Developmental Therapeutics Program Tumor Repository. For each lot of cells, the Repository performed Applied Biosystems AmpFLSTR Identifiler testing with PCR amplification to confirm consistency with the published Identifier STR profile for each cell line. Cells were kept in continuous culture for no more than 20 passages. The optimal seeding densities for each of the cell lines at each time point assessed were determined prior to performing the concentration response studies. Briefly, the NCI60 human tumor lines were grown as monolayers in RPMI 1640 medium supplemented with 10% FBS and 2 mmol/L L-glutamine.
An additional 2 lines were from the NCI60 cell line panel including melanomas, MALME-3M and SK-MEL-2. Pooled donor human umbilical vein endothelial cells (HUVEC, Lonza, cat. CC-2519) and human mesenchymal stem cells (hMSC, Lonza, cat. PT-2501) were purchased from Lonza (Walkersville, MD).
PDMR cell lines were grown in complete medium (DC medium): Dulbecco's modified Eagle's medium (DMEM)/F12 supplemented with 5% fetal bovine serum (FBS), 2 mM L-glutamine, 100 U/mL penicillin and 100 µg/ml streptomycin, 0.4 µg/ml hydrocortisone, 10 ng/ml epidermal growth factor (EGF) recombinant human protein, 24 µg/mL adenine, and 0.1 mg/mL primocin. During culture from frozen stock vials, PDMR cells were cultured in the same medium containing 10 µM Y-27632 (see Table 3). The PDCs were cultured in complete DMEM/F12 media without 10 microM Y-27632 dihydrochloride for at least two passages prior to the screen. The pooled donor HUVEC and hMSC were cultured in endothelial cell growth medium 2 (PromoCell, Heidelberg, Germany, cat. C-22011) and mesenchymal stem cell growth medium 2 (PromoCell, cat. C-28009), respectively. For all experiments, HUVEC and hMSC were used at passages </=5.
For the pre-screen, cell seeding densities were determined from a titration spanning the range from 5,000 to 313 cells per well. The mct-spheroids including 60% malignant cells, 25% HUVEC and 15% MSC dispensed as a mixture into U-bottom Ultra-Low Attachment 384-well plates (Corning, NY)
High-throughput Drug Combination Screening.
Prior to their inoculation into 384-well plates, malignant cells, HUVEC, and hMSC were removed from T flasks using TrypLE express (Thermo Fisher Scientific, cat. 12605036) and harvested by centrifugation for 5 min at 233 x g. […]

[1] = curve of first compound, second compound 0.3 µM
[2] = curve of first compound, second compound 0.949 µM
[3] = curve of first compound, second compound 3 µM
[4] = curve of first compound, second compound 9.49 µM
[5] = curve of first compound, second compound 30 µM
[6] = second compound 0.3 µM, first compound 0.000316 µM
[7] = second compound 0.3 µM, first compound 0.001 µM
[8] = second compound 0.3 µM, first compound 0.00316 µM
[9] = second compound 0.3 µM, first compound 0.01 µM
[10] = second compound 0.949 µM, first compound 0.000316 µM
[11] = second compound 0.949 µM, first compound 0.001 µM
[12] = second compound 0.949 µM, first compound 0.00316 µM
[13] = second compound 0.949 µM, first compound 0.01 µM
[14] = second compound 3 µM, first compound 0.000316 µM
[15] = second compound 3 µM, first compound 0.001 µM
[16] = second compound 3 µM, first compound 0.00316 µM
[17] = second compound 3 µM, first compound 0.01 µM
[18] = second compound 9.49 µM, first compound 0.000316 µM
[19] = second compound 9.49 µM, first compound 0.001 µM
[20] = second compound 9.49 µM, first compound 0.00316 µM
[21] = second compound 9.49 µM, first compound 0.01 µM
[22] = second compound 30 µM, first compound 0.000316 µM
[23] = second compound 30 µM, first compound 0.001 µM
[24] = second compound 30 µM, first compound 0.00316 µM
[25] = second compound 30 µM, first compound 0.01 µM
[26] = second compound 0.3 µM, first compound 0.0316 µM
[27] = second compound 0.3 µM, first compound 0.1 µM
[28] = second compound 0.949 µM, first compound 0.0316 µM
[29] = second compound 0.949 µM, first compound 0.1 µM
[30] = second compound 3 µM, first compound 0.0316 µM
[31] = second compound 3 µM, first compound 0.1 µM
[32] = second compound 9.49 µM, first compound 0.0316 µM
[33] = second compound 9.49 µM, first compound 0.1 µM
[34] = second compound 30 µM, first compound 0.0316 µM
[35] = second compound 30 µM, first compound 0.1 µM
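Also: spheroids exposed to drugs for seven days before readout.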

SMILES	IC50 [1]	IC50 [2]	IC50 [3]	IC50 [4]	IC50 [5]	viability, T/C [6]	viability, T/C [7]	viability, T/C [8]	viability, T/C [9]	viability, T/C [10]	viability, T/C [11]	viability, T/C [12]	viability, T/C [13]	viability, T/C [14]	viability, T/C [15]	viability, T/C [16]	viability, T/C [17]	viability, T/C [18]	viability, T/C [19]	viability, T/C [20]	further results
CC(C)CC(NC(=O)C(Cc1ccccc1)NC(=O)c1cnccn1)B(O)O (centres undefined) + CC(C)NCC(C(=O)N1CCN(c2ncnc3c2C(C)CC3O)CC1)c1ccc(Cl)cc1	> 0.01 µM	> 0.01 µM	> 0.01 µM	> 0.01 µM	> 0.01 µM	96.6%	97.7%	97.7%	80.3%	92.5%	105%	93.2%	74%	93%	102%	89.3%	70%	92.9%	84.4%	85.5%	viability, T/C (second compound 0.3 µM, first compound 31.6 pM): 112%; viability, T/C (second compound 0.3 µM, first compound 0.0001 µM): 94.2%; viability, T/C (second compound 0.949 µM, first compound 31.6 pM): 105%; viability, T/C (second compound 0.949 µM, first compound 0.0001 µM): 107%; viability, T/C (second compound 3 µM, first compound 31.6 pM): 102%; viability, T/C (second compound 3 µM, first compound 0.0001 µM): 98.2%; viability, T/C (second compound 9.49 µM, first compound 31.6 pM): 93.3%; viability, T/C (second compound 9.49 µM, first compound 0.0001 µM): 97.6%; viability, T/C [21]: 69.3%; viability, T/C (second compound 30 µM, first compound 31.6 pM): 85.8%; viability, T/C (second compound 30 µM, first compound 0.0001 µM): 98.5%; viability, T/C [22]: 87.3%; viability, T/C [23]: 89.2%; viability, T/C [24]: 86%; viability, T/C [25]: 69.1%
CC(C)n1nc(-c2ccc3oc(N)nc3c2)c2c(N)ncnc21 + CC(C)NCC(C(=O)N1CCN(c2ncnc3c2C(C)CC3O)CC1)c1ccc(Cl)cc1	> 0.1 µM	> 0.1 µM	> 0.1 µM	> 0.1 µM	> 0.1 µM	109%	98.8%	96.5%	80.4%	106%	101%	83%	85%	101%	91.8%	80.8%	82%	89.5%	94.6%	84.1%	viability, T/C [26]: 73.1%; viability, T/C [27]: 71.2%; viability, T/C [28]: 76%; viability, T/C [29]: 68%; viability, T/C [30]: 73.7%; viability, T/C [31]: 71.8%; viability, T/C [21]: 78.7%; viability, T/C [32]: 69.9%; viability, T/C [33]: 66.8%; viability, T/C [22]: 88.6%; viability, T/C [23]: 91.1%; viability, T/C [24]: 87.8%; viability, T/C [25]: 75%; viability, T/C [34]: 73.3%; viability, T/C [35]: 70.3%
CC(C)CC(NC(=O)C(Cc1ccccc1)NC(=O)c1cnccn1)B(O)O (centres undefined)	–	–	–	–	–	–	–	–	–	–	–	–	–	–	–	–	–	–	–	–	viability, T/C (compound 31.6 pM): 111% and 105%; viability, T/C (compound 0.0001 µM): 104% and 98.9%; viability, T/C (compound 0.000316 µM): 102% and 98.8%; viability, T/C (compound 0.001 µM): 103% and 101%; viability, T/C (compound 0.00316 µM): 100% and 97.5%; viability, T/C (compound 0.01 µM): 66.4% and 69.6%; IC50 (curve of compound): > 0.01 µM
COc1c(OCCCN2CCOCC2)ccc2c3n(c(=NC(=O)c4cnc(N)nc4)nc12)CCN3	–	–	–	–	–	–	–	–	–	–	–	–	–	–	–	–	–	–	–	–	viability, T/C (compound 0.00316 µM): 103% and 116%; viability, T/C (compound 0.01 µM): 91% and 95.7%; viability, T/C (compound 0.0316 µM): 82.8% and 82.9%; viability, T/C (compound 0.1 µM): 75.8% and 72.9%; viability, T/C (compound 0.316 µM): 68.9% and 70.3%; viability, T/C (compound 1 µM): 66% and 72.5%; IC50 (curve of compound): > 1 µM
COC1CC2CCC(C)C(O)(O2)C(=O)C(=O)N2CCCCC2C(=O)OC(C(C)CC2CCC(OCCO)C(OC)C2)CC(=O)C(C)C=C(C)C(O)C(OC)C(=O)C(C)CC(C)C=CC=CC=C1C (centres undefined) + CC(C)NCC(C(=O)N1CCN(c2ncnc3c2C(C)CC3O)CC1)c1ccc(Cl)cc1	> 0.1 µM	> 0.1 µM	> 0.1 µM	> 0.1 µM	> 0.1 µM	110%	97.1%	81.7%	90.4%	103%	88.6%	85.9%	87.4%	97.4%	101%	87.6%	77.9%	91.4%	88.6%	81.3%	viability, T/C [26]: 83.7%; viability, T/C [27]: 82%; viability, T/C [28]: 87.4%; viability, T/C [29]: 79.8%; viability, T/C [30]: 81.5%; viability, T/C [31]: 77.3%; viability, T/C [21]: 73.7%; viability, T/C [32]: 75.2%; viability, T/C [33]: 76.8%; viability, T/C [22]: 93.1%; viability, T/C [23]: 91.2%; viability, T/C [24]: 82.8%; viability, T/C [25]: 77.7%; viability, T/C [34]: 79.1%; viability, T/C [35]: 72.7%
